Values quoted from earlier work in Sander's compilation of Henry's law constants (doi:10.1007/978-1-4612-3850-8_1).
Several values for one entry are separate records, joined by “and”; a condition that tells them apart may be missing. Equal entries are not always repeated.

Assays:
[1] = Henry solubility constant Hcp at 293 K (mol/(m3 Pa)); settings: reference: Suntio et al. (1988); cited value
[2] = Henry solubility constant Hcp at 298.15 K (mol/(m3 Pa)); settings: reference: Suntio et al. (1988); cited value

Compound	Henry solubility constant Hcp at 293 K [1]	Henry solubility constant Hcp [2]
ClC1C(Cl)C(Cl)C(Cl)C(Cl)C1Cl (centres undefined) [γ-1,2,3,4,5,6-hexachlorocyclohexane]	20	
Clc1ccc(C(c2ccc(Cl)cc2)C(Cl)(Cl)Cl)cc1 [1,1,1-trichloro-2,2-bis-(4-chlorophenyl)-ethane]		0.17
ClC1C(Cl)C(Cl)C(Cl)C(Cl)C1Cl (stereo not drawn) [β-1,2,3,4,5,6-hexachlorocyclohexane]		56
ClC1=C(Cl)[C@]2(Cl)C3C(Cl)C(Cl)CC3[C@@]1(Cl)C2(Cl)Cl (some centres undefined) [chlordane]		0.2 and 0.11
ClC1=C(Cl)[C@]2(Cl)[C@@H]3[C@H]4C[C@H]([C@@H]5O[C@H]45)[C@@H]3[C@@]1(Cl)C2(Cl)Cl [endrin]		5600
ClC1C(Cl)C(Cl)C(Cl)C(Cl)C1Cl (stereo not drawn) [α-1,2,3,4,5,6-hexachlorocyclohexane]		1.8
C=CC=O [propenal]	0.18	
Clc1ccc(C(c2ccccc2Cl)C(Cl)Cl)cc1 (centres undefined) [mitotane]		560
CNC(=O)O/N=C/C(C)(C)SC [aldicarb]	1.9	
ClC1(Cl)C2(Cl)C3(Cl)C4(Cl)C(Cl)(Cl)C5(Cl)C3(Cl)C1(Cl)C5(Cl)C24Cl (centres undefined) [mirex]	0.00099	
ClC1=C(Cl)[C@]2(Cl)[C@@H]3[C@@H]4C[C@@H]([C@H]5O[C@@H]45)[C@@H]3[C@@]1(Cl)C2(Cl)Cl [dieldrin]	50	
ClC(Cl)=C(c1ccc(Cl)cc1)c1ccccc1Cl [o,p'-DDE]	0.14	
CC1=CC(=O)CC(C)(C)C1 [3,5,5-trimethyl-2-cyclohexen-1-one]	1.8	
ClC(Cl)=C(c1ccc(Cl)cc1)c1ccc(Cl)cc1 [1,1-dichloro-2,2-bis-(4-chlorophenyl)-ethene]		0.45
